From patent US20170051149A1, “AZOARYLS AS REVERSIBLY MODULATABLE TUBULIN INHIBITORS” (ECOLE NORMALE SUPERIEURE DE LYON, priority 2014, published 2017)

Columns and labels:
HEK-293T cells = experiment: MTT assay, light-dependent cell proliferation; assay type: cell-based; settings: 72 h
HeLa cells [1] = experiment: MTT assay; assay type: cell-based; settings: 50 nM, 48 h
Source text: The cytotoxic properties of I.1 were subsequently confirmed with another method, using the quantification of mitochondrial dehydrogenase activity of cells as determined by the level of 3-(4.5-dimethylthiazol-2-yl)-2.5-diphenyl tetrazolium bromide (MTT) reduction to its purple formazan, according to standard protocol^[30]. […] Cells were kept in the dark, or exposed to a pulsed toxic regime of 390 nm only, or exposed to a strong rescue protocol with pulses of 390 nm then 505 nm light. Pulses of light were applied every 30 s; 390 nm light pulses lasted 150 ms every 30 s, while the 505 nm light pulses were applied for 500 ms; in the strong rescue regime, the 505 nm pulse was synchronised so that it began immediately after the 390 nm pulse ended.
Cellular viability was measured 48 h later, namely, cells were incubated with MTT for three hours and after dissolution of the formazan crystals with DMSO, absorbance at 550 nm was measured using a FLUOstar Omega microplate reader. Results are shown in Table 5 below and are expressed as a fold growth relative to the control growth of the cells treated only with a co-solvent (0.5% MeCN) and represent mean and standard deviation of quadruplicates of the optical density values, which are proportional to the cell number.

HEK-293 = experiment: cell cycle analysis by PI flow cytometry; assay type: cell-based; settings: 15 nM, 30 h
Procedure: (§1) The effect of compound I.1 on cell cycle progression was assessed by flow cytometry. Briefly, following the application of compound I.1 and exposure to the indicated light regime, cells were harvested on ice and incubated in a hypotonic buffer [0.1% sodium citrate, 0.1% Triton X-100 and 50 μg/mL propidium iodide (PI)] for 30 min at 4° C. Following the PI staining cells were analysed by flow cytometry using FACSCalibur flow cytometer (Becton Dickinson, Heidelberg, Germany) and Cell Quest Pro Software (Becton Dickinson). Subsequently the cell cycle analysis was performed using the FlowJo software (Tree Star Inc., Ashland, Oreg., USA).

HeLa [2] = experiment: cell cycle analysis by PI flow cytometry; assay type: cell-based; settings: 15 nM, 30 h
Procedure: as §1

MDA-MB-231 cells = experiment: cell cycle analysis by PI flow cytometry; assay type: cell-based; settings: 15 nM, 30 h
Procedure: as §1

HeLa cells [3] = experiment: nuclear fragmentation (subG1, Nicoletti), induction of apoptosis; assay type: cell-based; settings: 15 nM, 30 h
Procedure: (§2) Different cell types, including MDA-MB-231, Jurkat, HeLa and HepG2 cells, were treated with indicated concentrations of compound I.1 and exposed to a 390 nm toxic regime, a rescue regime with both 390 nm and 515 nm light, or kept in the dark. Following the treatment, cells were stained with PI and the percentage of cells containing a hypodiploid amount of DNA (subG1 phase of cell cycle), was determined. Briefly, prior to analysis, cells were harvested on ice and incubated in a hypotonic buffer [0.1% sodium citrate, 0.1% Triton X-100 and 50 μg/mL propidium iodide (PI)] for 30 min at 4° C. Following the PI staining cells were analysed by flow cytometry using FACSCalibur flow cytometer (Becton Dickinson, Heidelberg, Germany) and Cell Quest Pro Software (Becton Dickinson).

Jurkat cells [4] = experiment: as above; assay type: cell-based; settings: 48 h
Procedure: as §2

MDA-MB-231 = experiment: membrane permeability, PI uptake in nonpermeabilized cells; assay type: cell-based; settings: 15 nM, 70 h
Procedure: (§3) Membrane integrity was assessed as a marker of cellular viability, via examining the uptake of propidium iodide (PI) in nonpermeabilized cells according to a standard protocol. Namely, cells were harvested and incubated with 5 μg/mL PI in PBS containing 2% FCS (foetal calf serum), and immediately analysed by flow cytometry using a FACSCalibur flow cytometer.

Jurkat cells [5] = experiment: as above; assay type: cell-based; settings: 15 nM, 48 h
Procedure: as §3

HeLa [6] = experiment: as above; assay type: cell-based; settings: 15 nM, 70 h
Procedure: as §3

tubulin = settings: trans isomer; read-out: in vitro IC50, tubulin polymerisation; cited from earlier work

COc1ccc(/C=C\c2cc(OC)c(OC)c(OC)c2)cc1OP(=O)(O)O [CA4P, fosbretabulin, reference compound]
fold growth relative to cosolvent control (MTT) (HEK-293T cells; 5 nM, 390 nm, 0.35 s every 2 min): 1.29 | fold growth relative to cosolvent control (MTT) (HEK-293T cells; 5 nM, 390 nm, 0.35s then 490 nm, 3 s (rescue) every 2 min): 1.28 | fold growth relative to cosolvent control (MTT) (HEK-293T cells; 5 nM, 410 nm, 0.35 s every 2 min): 1.19 | fold growth relative to cosolvent control (MTT) (HEK-293T cells; 5 nM, 410 nm, 0.35 s then 505 nm, 3 s (rescue) every 2 min): 1.20 | fold growth relative to cosolvent control (MTT) (HEK-293T cells; 5 nM, 475 nm, 3 s every 2 min): 1.12 | fold growth relative to cosolvent control (MTT) (HEK-293T cells; 5 nM, 490 nm, 3 s every 2 min): 1.43 | fold growth relative to cosolvent control (MTT) (HEK-293T cells; 5 nM, 505 nm, 3 s every 2 min): 1.07 | fold growth relative to cosolvent control (MTT) (HEK-293T cells; 5 nM, 525 nm, 3 s every 2 min): 0.86 | fold growth relative to cosolvent control (MTT) (HEK-293T cells; 5 nM, Dark): 0.82 | fold growth relative to cosolvent control (MTT) (HEK-293T cells; 15 nM, 390 nm, 0.35 s every 2 min): 0.88 | fold growth relative to cosolvent control (MTT) (HEK-293T cells; 15 nM, 390 nm, 0.35s then 490 nm, 3 s (rescue) every 2 min): 0.82 | fold growth relative to cosolvent control (MTT) (HEK-293T cells; 15 nM, 410 nm, 0.35 s every 2 min): 0.80 | fold growth relative to cosolvent control (MTT) (HEK-293T cells; 15 nM, 410 nm, 0.35 s then 505 nm, 3 s (rescue) every 2 min): 0.81 | fold growth relative to cosolvent control (MTT) (HEK-293T cells; 15 nM, 475 nm, 3 s every 2 min): 0.70 | fold growth relative to cosolvent control (MTT) (HEK-293T cells; 15 nM, 490 nm, 3 s every 2 min): 0.97 | fold growth relative to cosolvent control (MTT) (HEK-293T cells; 15 nM, 505 nm, 3 s every 2 min): 0.75 | fold growth relative to cosolvent control (MTT) (HEK-293T cells; 15 nM, 525 nm, 3 s every 2 min): 0.81 | fold growth relative to cosolvent control (MTT) (HEK-293T cells; 15 nM, Dark): 0.79 | mean fold growth (HeLa cells [1]; 390 nm (150 ms every 30 s)): 0.38 fold | mean fold growth (HeLa cells [1]; Dark): 0.29 fold | mean % G2/M phase (HEK-293; 390 nm (1 s every 15 min)): 70.1% | mean % G2/M phase (HEK-293; dark): 72.0% | mean % G2/M phase (HeLa [2]; 390 nm (1 s every 15 min)): 69.5% | mean % G2/M phase (HeLa [2]; dark): 69.0% | mean % G2/M phase (MDA-MB-231 cells; 390 nm (1 s every 15 min)): 50.9% | mean % G2/M phase (MDA-MB-231 cells; dark): 51.3% | mean % subG1 phase (HeLa cells [3]; 390 nm light (1 s pulses every 15 min)): 12.3% | mean % subG1 phase (HeLa cells [3]; dark): 11.5% | mean % subG1 phase (Jurkat cells [4]; 5 nM, 390 nm (350 ms pulses every 5 min)): 40.4% | mean % subG1 phase (Jurkat cells [4]; 5 nM, dark): 37.5% | mean % subG1 phase (Jurkat cells [4]; 15 nM, 390 nm (350 ms pulses every 5 min)): 91.5% | mean % subG1 phase (Jurkat cells [4]; 15 nM, dark): 89.7% | mean % cells PI+ (MDA-MB-231; 390 nm (1 s every 15 min)): 43.2% | mean % cells PI+ (MDA-MB-231; dark): 45.1% | mean % cells PI+ (Jurkat cells [5]; 390 nm (350 ms every 5 min)): 5.7% | mean % cells PI+ (Jurkat cells [5]; dark): 8.0% | mean % cells PI+ (HeLa [6]; 390 nm (1 s every 15 min)): 63.9% | mean % cells PI+ (HeLa [6]; dark): 62.5%

CCCCCCCOc1ccc(/N=N/c2ccc(CNN[C@H](C=O)CCCCN)cc2)cc1 [P1]
IC50 (tubulin): ~100 µM
